Values quoted from earlier work in patent US9012510B2, “Oleoylethanolamide based functional mesophases” (Nestec S.A., priority 2008, dated 2015).

Conditions: Thabuis et al., Lipid Technology 2007, 19, 225

CCCCCCCC/C=C\CCCCCCCC(=O)NCCO [OEA, oleoylethanolamide]
effect of administration on food intake and gain in body mass: potent and persistent decrease in food intake and gain in body mass
